ChEMBL document CHEMBL5113404, “Design, synthesis and biological evaluation of new parbendazole derivatives for the treatment of HNSCC” (Eur J Med Chem, 2022)
Activity calls are given as the source filed them. The rule behind the calls is not given here.

Columns and labels:
[1] = Antiproliferative activity against human HN-6 cells assessed as cell growth inhibition incubated for 72 hrs by CCK-8 assay; format: functional, cell-based; details: HN-6, 72 h
FaDu = experiment: Antiproliferative activity against human FaDu cells assessed as cell growth inhibition incubated for 72 hrs by CCK-8 assay; format: functional, cell-based
CAL-27 = experiment: Antiproliferative activity against human CAL-27 cells assessed as cell growth inhibition incubated for 72 hrs by CCK-8 assay; format: functional, cell-based; details: CAL-27, 72 h
Tubulin (Homo sapiens) = Tubulin (Homo sapiens) (UniProt P68371+Q9H4B7+P0DPH7+P68366+Q13509+Q71U36+P04350+Q3ZCM7+P07437+P68363+Q9BQE3+Q6PEY2+Q13885+Q9BVA1+Q9BUF5); experiment: Inhibition of tubulin polymerization (unknown origin) at 20 micromol/L by fluorescence based analysis; format: protein-complex assay; details: dose 20.0 µmol/L
Tubulin = experiment: Inhibition of tubulin polymerization (unknown origin) by fluorescence based analysis; format: protein-complex assay, Homo sapiens
HN-6 [2] = experiment: Inhibition of cell invasion in human HN-6 cells at 200 to 500 nmol/L incubated for 24 hrs by crystal violet staining based transwell assay; format: functional; details: dose 200-500 nmol/L
[3] = Antimigratory activity in human HN-6 cells assessed as inhibition of cell migration at 0.1 micromol/L measured after 24 hrs by scratch wound assay based fluorescence microscope analysis; format: functional; details: HN-6, 24 h, dose 0.1 µmol/L
[4] = Induction of cell cycle arrest in human HN-6 cells assessed as accumulation of cells at S phase at 0.1 micromol/L incubated for 24 hrs by PI staining based flow cytometry analysi (reference value: 31.19%); format: functional; details: dose 0.1 µmol/L, at 0.1 µM
[5] = Induction of cell cycle arrest in human HN-6 cells assessed as accumulation of cells at G1 phase at 0.1 micromol/L incubated for 24 hrs by PI staining based flow cytometry analysi (reference value: 45.33%); format: functional; details: dose 0.1 µmol/L, at 0.1 µM
[6] = Induction of apoptosis in human HN-6 cells assessed as late apoptotic cells at 0.1 micromol/L incubated for 24 hrs by Annexin-V/FITC-PI staining based flow cytometry analysis (reference value: 8.81%); format: functional; details: dose 0.1 µmol/L, at 0.1 µM
[7] = Acute toxicity in IG dosed Kunming mouse assessed as lethal dose after 15 days of administration; format: organism-based; details: in vivo, po, time 15 day
[8] = Induction of apoptosis in human HN-6 cells assessed as viable cells at 1 micromol/L incubated for 24 hrs by Annexin-V/FITC-PI staining based flow cytometry analysis (reference value: 97.26%); format: functional; details: HN-6, 24 h, dose 1 µmol/L, read-out: Activity
[9] = Induction of apoptosis in human HN-6 cells assessed as necrotic cells at 1 micromol/L incubated for 24 hrs by Annexin-V/FITC-PI staining based flow cytometry analysis (reference value: 2.08%); format: functional; details: dose 1 µmol/L, at 1 µM
[10] = Induction of apoptosis in human HN-6 cells assessed as early apoptotic cells at 0.1 micromol/L incubated for 24 hrs by Annexin-V/FITC-PI staining based flow cytometry analysis (reference value: 2.04%); format: functional; details: dose 0.1 µmol/L, at 0.1 µM
[11] = AUC (0 to t) in rat at 100 mg/kg,IG measured upto 24 hrs by HPLC analysis; format: ADME, organism-based; set-up: dose 100 mg/kg, time < 24 hrs, route ig; details: in vivo, po
[12] = Tmax in rat at 100 mg/kg,IG measured upto 24 hrs by HPLC analysis; format: ADME, organism-based; details: in vivo, po
[13] = Half life in rat at 100 mg/kg,IG measured upto 24 hrs by HPLC analysis; format: ADME, organism-based; details: in vivo, po
[14] = Induction of apoptosis in human HN-6 cells assessed as late apoptotic cells at 1 micromol/L incubated for 24 hrs by Annexin-V/FITC-PI staining based flow cytometry analysis (reference value: 8.81%); format: functional; details: dose 1 µmol/L, at 1 µM
[15] = Induction of cell cycle arrest in human HN-6 cells assessed as accumulation of cells at S phase at 0.1 micromol/L incubated for 24 hrs by PI staining based flow cytometry analysi (reference value: 32.12%); format: functional; details: dose 0.1 µmol/L, at 0.1 µM
[16] = Acute toxicity in Kunming mouse assessed as death at 1 g/Kg,IG after 15 days of administration; details: in vivo, po, 1000 mg/kg, 360 h, time 15 day
[17] = Cmax in rat at 100 mg/kg,IG measured upto 24 hrs by HPLC analysis; format: ADME, organism-based; set-up: dose 100 mg/kg, time < 24 hrs, route ig; details: in vivo, po
[18] = Induction of apoptosis in human HN-6 cells assessed as necrotic cells at 0.1 micromol/L incubated for 24 hrs by Annexin-V/FITC-PI staining based flow cytometry analysis (reference value: 2.08%); format: functional; details: dose 0.1 µmol/L, at 0.1 µM
[19] = Cytotoxicity against human HFF-1 clls assessed as reduction in cell viability incubated for 72 hrs by CCK-8 assay; format: toxicity, cell-based; details: HFF-1 cells
[20] = Induction of apoptosis in human HN-6 cells assessed as viable cells at 0.1 micromol/L incubated for 24 hrs by Annexin-V/FITC-PI staining based flow cytometry analysis (reference value: 97.26%); format: functional; details: HN-6, 24 h, dose 0.1 µmol/L, read-out: Activity
[21] = Induction of apoptosis in human HN-6 cells assessed as early apoptotic cells at 1 micromol/L incubated for 24 hrs by Annexin-V/FITC-PI staining based flow cytometry analysis (reference value: 2.04%); format: functional; details: dose 1 µmol/L, at 1 µM
[22] = Acute toxicity in Kunming mouse assessed as adverse effect at 1 g/Kg,IG after 15 days of administration; details: in vivo, po, 1000 mg/kg, 360 h, time 15 day
HN-6 [23] = experiment: Induction of cell morphological changes in human HN-6 cells assessed as decrease in tubulin network around nucleus at 100 nmol/L incubated for 24 hrs by DAPI staining based confocal microscopy analysis; format: functional

SMILES: COc1cc2c(c(OC)c1OC)-c1ccc(OC)c(=O)cc1[C@@H](NC(C)=O)CC2 [COLCHICINE]
- IC50 [1]: 19.5 nM
- IC50 (FaDu): 22.8 nM
- IC50 (CAL-27): 37.5 nM

SMILES: CCCCc1ccc2nc(NC(=O)C3CCOCC3)[nH]c2c1
- IC50 [1]: 1180 nM
- inhibition (Tubulin (Homo sapiens)): 100%
- IC50 (Tubulin): 4400 nM

SMILES: C=CCNC(=O)Nc1nc2ccc(CCCC)cc2[nH]1
- IC50 [1]: 392 nM
- IC50 (FaDu; read-out: IC50): 282 nM
- inhibition (Tubulin (Homo sapiens)): 8.4%
- IC50 (CAL-27): 216 nM

SMILES: CCCCc1ccc2nc(NC(=O)c3ccco3)[nH]c2c1
- IC50 [1]: 349 nM
- inhibition (Tubulin (Homo sapiens)): 57.7%
- IC50 (Tubulin): 16200 nM

SMILES: CCCCc1ccc2nc(NC(=O)NCCc3ccccc3)[nH]c2c1
- IC50 [1]: 429 nM
- IC50 (FaDu; read-out: IC50): 775 nM
- inhibition (Tubulin (Homo sapiens)): 38.7%
- IC50 (CAL-27): 499 nM

SMILES: CCCCc1ccc2nc(NC(=O)OCCC)[nH]c2c1
- IC50 [1]: 254 nM
- IC50 (FaDu; read-out: IC50): 284 nM
- inhibition (Tubulin (Homo sapiens)): 88.8%
- IC50 (Tubulin): 5340 nM
- IC50 (CAL-27): 252 nM

SMILES: CCCCCc1ccc2nc(NC(=O)OC(C)C)[nH]c2c1
- IC50 [1]: 170 nM
- IC50 (FaDu; read-out: IC50): 228 nM
- inhibition (Tubulin (Homo sapiens)): 100%
- IC50 (Tubulin): 6810 nM
- IC50 (CAL-27): 312 nM

SMILES: CCCCCCCOC(=O)Nc1nc2ccc(CCCC)cc2[nH]1
- IC50 [1]: > 2000 nM
- inhibition (Tubulin (Homo sapiens)): 0%

SMILES: CCCCOC(=O)Nc1nc2ccc(CCCC)cc2[nH]1
- IC50 [1]: 254 nM
- inhibition (Tubulin (Homo sapiens)): 44.1%

SMILES: CC(C)OC(=O)Nc1nc2cc(F)c(F)cc2[nH]1
- IC50 [1]: 1370 nM
- inhibition (Tubulin (Homo sapiens)): 12.6%

SMILES: CC[C@]1(O)C[C@@H]2CN(CCc3c([nH]c4ccccc34)[C@@](C(=O)OC)(c3cc4c(cc3OC)N(C)[C@H]3[C@@](O)(C(=O)OC)[C@H](OC(C)=O)[C@]5(CC)C=CCN6CC[C@]43[C@@H]65)C2)C1 [VINBLASTINE]
- IC50 [1]: 0.83 nM
- IC50 (FaDu; read-out: IC50): 4.48 nM
- IC50 (CAL-27): 1.03 nM

SMILES: CCCCc1ccc2nc(NC(=O)Cc3ccccc3)[nH]c2c1
- IC50 [1]: > 2000 nM
- inhibition (Tubulin (Homo sapiens)): 4.9%

SMILES: CC(C)OC(=O)Nc1nc2ccc(C(F)(F)F)cc2[nH]1
- IC50 [1]: 1000 nM
- inhibition (Tubulin (Homo sapiens)): 4.37%

SMILES: CCCCc1ccc2nc(NC(=O)NC3CCCC3)[nH]c2c1
- IC50 [1]: 745 nM
- inhibition (Tubulin (Homo sapiens)): 32.3%

SMILES: CCCCc1ccc2nc(NC(=O)OC(C)CC)[nH]c2c1 (stereo not given)
- IC50 [1]: 74.6 nM
- IC50 (FaDu; read-out: IC50): 154 nM
- inhibition (Tubulin (Homo sapiens)): 99.7%
- IC50 (Tubulin): 1620 nM
- IC50 (CAL-27): 171 nM

SMILES: CCCCCCOC(=O)Nc1nc2ccc(CCCC)cc2[nH]1
- IC50 [1]: > 2000 nM
- inhibition (Tubulin (Homo sapiens)): 0%

SMILES: CCCCc1ccc2nc(NC(=O)NC3CCCCC3)[nH]c2c1
- IC50 [1]: 967 nM
- inhibition (Tubulin (Homo sapiens)): 8.26%

SMILES: CCCCc1ccc2nc(NC(=O)OC3CCCC3)[nH]c2c1
- IC50 [1]: 1690 nM
- inhibition (Tubulin (Homo sapiens)): 8.6%

SMILES: CCCCc1ccc2nc(NC(=O)OCC(CC)CCCC)[nH]c2c1 (stereo not given)
- IC50 [1]: > 2000 nM
- inhibition (Tubulin (Homo sapiens)): 9.96%

SMILES: CCCCc1ccc2nc(NC(=O)NC(C)C)[nH]c2c1
- IC50 [1]: 856 nM
- inhibition (Tubulin (Homo sapiens)): 9.65%

SMILES: Cc1ccc2nc(NC(=O)OC(C)C)[nH]c2c1
- IC50 [1]: 595 nM
- inhibition (Tubulin (Homo sapiens)): 71.6%
- IC50 (Tubulin): 6270 nM

SMILES: CC(C)OC(=O)Nc1nc2ccc(F)cc2[nH]1
- IC50 [1]: 1470 nM
- inhibition (Tubulin (Homo sapiens)): 0.85%

SMILES: CCCCc1ccc2nc(NC(=O)OCC(C)C)[nH]c2c1
- IC50 [1]: 412 nM
- inhibition (Tubulin (Homo sapiens)): 34.4%

SMILES: CCCCCCNC(=O)Nc1nc2ccc(CCCC)cc2[nH]1
- IC50 [1]: 1400 nM
- inhibition (Tubulin (Homo sapiens)): 12.5%

SMILES: CCCCc1ccc2[nH]c(NC(=O)OC)nc2c1 [PARBENDAZOLE]
- inhibition (HN-6 [2]): Active
- IC50 [1]: 102 nM
- inhibition at 0.1 µM [3]: 12.8%
- Activity [4]: 69.09%
- Activity [5]: 13.56%
- IC50 (FaDu; read-out: IC50): 160 nM
- Activity [6]: 21.71%
- inhibition (Tubulin (Homo sapiens)): 76.7%
- LD50 at 360 h [7]: > 1000 mg/kg
- viability at 1 µM [8]: 51.8%
- Activity [9]: 5.94%
- Activity [10]: 13.03%
- AUC(0-t) at 24 h [11]: 403 ng·h/mL
- Tmax [12]: 4 h
- half-life [13]: 2.16 h
- Activity [14]: 25.96%
- Activity [15]: 16.02%
- Activity [16]: Non-Toxic
- Cmax [17]: 141 ng/mL
- IC50 (Tubulin): 9550 nM
- Activity [18]: 4.46%
- IC50 (CAL-27): 173 nM
- IC50 at 72 h [19]: > 20000 nM
- viability at 0.1 µM [20]: 60.8%
- Activity [21]: 16.34%
- Activity [22]: Non-Toxic
- Activity (HN-6 [23]): Active

SMILES: CCCCc1ccc2nc(NC(=O)NCCC)[nH]c2c1
- IC50 [1]: 549 nM
- inhibition (Tubulin (Homo sapiens)): 2.99%

SMILES: Cc1cc2nc(NC(=O)OC(C)C)[nH]c2cc1C
- IC50 [1]: 135 nM
- inhibition (Tubulin (Homo sapiens)): 89.4%
- IC50 (Tubulin): 5080 nM

SMILES: CCCCc1ccc2nc(NC(=O)NCC)[nH]c2c1
- IC50 [1]: 187 nM
- inhibition (Tubulin (Homo sapiens)): 0%

SMILES: CCCCc1ccc2nc(NC(=O)NCCOC(=O)C(C)C)[nH]c2c1
- IC50 [1]: 1590 nM
- inhibition (Tubulin (Homo sapiens)): 0%

SMILES: CCCCc1ccc2nc(NC(=O)OCCCl)[nH]c2c1
- IC50 [1]: > 2000 nM
- inhibition (Tubulin (Homo sapiens)): 0%

SMILES: CCCCc1ccc2nc(NC(=O)NC(C)(C)C)[nH]c2c1
- IC50 [1]: > 2000 nM
- inhibition (Tubulin (Homo sapiens)): 9.79%

SMILES: CCCCc1ccc2nc(NC(=O)OCCCCl)[nH]c2c1
- IC50 [1]: 456 nM
- inhibition (Tubulin (Homo sapiens)): 36.4%

SMILES: CC(C)OC(=O)Nc1nc2ccc(C#N)cc2[nH]1
- IC50 [1]: > 2000 nM
- inhibition (Tubulin (Homo sapiens)): 3.43%

SMILES: COc1ccc(/C=C\c2cc(OC)c(OC)c(OC)c2)cc1O [COMBRETASTATIN A4]
- IC50 [1]: 4.43 nM
- IC50 (FaDu; read-out: IC50): 5.05 nM
- IC50 (CAL-27): 3.01 nM

SMILES: CCCCc1ccc2nc(NC(=O)OCc3ccccc3)[nH]c2c1
- IC50 [1]: > 2000 nM
- inhibition (Tubulin (Homo sapiens)): 10.5%
